Assay results reported in PMC10608985, “Retention Behavior of Anticancer Thiosemicarbazides in Biomimetic Chromatographic Systems and In Silico Calculations” (Molecules, 2023).

How the values were obtained:
[1] = HPLC lipophilicity on IAM (immobilized artificial membrane, phosphatidylcholine) stationary phase; type: physicochemical; details: pH 7.4; for Log k IAM: Table S2
How it was run: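 Rexchrom IAM.PC.DD2 column with ACN/20 mM phosphate buffer pH 7.4 (0.15 M KCl), ACN fraction 0.05–0.4 v/v at 0.05 steps, 1 mL/min, UV 280 nm, room temperature; t0 from citric acid. log kw and slope S extrapolated via Soczewiński–Wachtmeister equation.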

[2] = molecular target: T1, human serum albumin (HSA) (Homo sapiens, UniProt P02768); test: HPLC on immobilized HSA column, affinity and % plasma–protein binding; type: in vitro ADME
T1 construct: purchased Chiralpac
How it was run: (§1)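 Retention (log k) on immobilized-protein HPLC columns, 50 mM ammonium acetate pH 7.4 with propan-2-ol (85/15 for AGP), UV 280 nm, room temperature. log K read from drug calibration curves, then converted to %PPB.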

[3] = HPLC lipophilicity on cholesterol (Chol) stationary phase; type: physicochemical; details: pH 7.4; for Log k Chol: Table S3
How it was run: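 Cholesterol-bonded column run isocratically with MeOH/20 mM acetate buffer at pH 7.4, MeOH fraction 0.3–0.8 (v/v), 0.35 mL/min, room temperature, UV 280 nm. t0 from citric acid; log kw (intercept) and slope S from Soczewiński–Wachtmeister regression of log k against modifier content.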

[4] = system: α1-acid glycoprotein (AGP); test: HPLC on immobilized AGP column, affinity and % plasma–protein binding; type: in vitro ADME, human
How it was run: as §1

[5] = design: method as in Kozyra et al. [31]; details: MeOH/20 mM acetate buffer, pH 7.4, ref Kozyra et al. [31], cited from earlier work

T1 sequence (P02768 25-609): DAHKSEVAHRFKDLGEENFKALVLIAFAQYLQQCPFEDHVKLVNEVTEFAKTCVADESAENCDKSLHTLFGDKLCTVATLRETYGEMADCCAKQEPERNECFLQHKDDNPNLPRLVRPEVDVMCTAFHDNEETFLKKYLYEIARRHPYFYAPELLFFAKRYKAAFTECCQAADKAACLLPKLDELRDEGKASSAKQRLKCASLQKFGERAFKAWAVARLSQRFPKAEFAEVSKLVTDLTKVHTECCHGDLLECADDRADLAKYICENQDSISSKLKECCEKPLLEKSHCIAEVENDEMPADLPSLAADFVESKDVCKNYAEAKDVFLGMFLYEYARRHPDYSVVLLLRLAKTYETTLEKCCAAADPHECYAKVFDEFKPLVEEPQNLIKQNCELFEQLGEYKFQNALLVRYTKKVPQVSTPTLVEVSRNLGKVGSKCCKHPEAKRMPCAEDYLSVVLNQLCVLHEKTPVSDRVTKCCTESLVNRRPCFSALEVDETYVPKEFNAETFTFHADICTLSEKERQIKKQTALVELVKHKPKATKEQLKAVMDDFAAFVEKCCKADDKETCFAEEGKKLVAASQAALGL

Which results are given for `O=C(COc1ccccc1)NNC(=S)Nc1cccc2ccccc12` [Compound 18]?
Log k IAM ([1]; ACN 0.10 v/v in mobile phase): 1.105; Log k IAM ([1]; ACN 0.15 v/v in mobile phase): 0.809; Log k IAM ([1]; ACN 0.20 v/v in mobile phase): 0.533; Log k IAM ([1]; ACN 0.25 v/v in mobile phase): 0.278; Log k IAM ([1]; ACN 0.30 v/v in mobile phase): -0.130; Log k IAM ([1]; ACN 0.35 v/v in mobile phase): -0.258; log kw IAM ([1]; intercept, linear extrapolation to water, ACN/20 mM phosphate buffer): 1.6606; -S IAM ([1]; slope of Soczewiński–Wachtmeister equation, ACN/20 mM phosphate buffer): 5.6500; log K HSA ([2]; binding equilibrium constant from calibration curve (Equation 8) of log k HSA): 1.5246; fraction unbound ([2]; human, pH 7.4, % plasma–protein binding converted from log K HSA (Equation 10), read-out: %PPB HSA (converted)): 0.019; log k HSA ([2]; retention on HSA column, 50 mM ammonium acetate pH 7.4 / propan-2-ol 85/15 (v/v)): 1.2098; Log k Chol ([3]; MeOH 0.30 v/v in mobile phase): 1.494; Log k Chol ([3]; MeOH 0.35 v/v in mobile phase): 1.296; Log k Chol ([3]; MeOH 0.40 v/v in mobile phase): 1.025; Log k Chol ([3]; MeOH 0.45 v/v in mobile phase): 0.758; Log k Chol ([3]; MeOH 0.50 v/v in mobile phase): 0.405; Log k Chol ([3]; MeOH 0.60 v/v in mobile phase): 0.062; Log k Chol ([3]; MeOH 0.80 v/v in mobile phase): -1.016; log kw Chol ([3]; intercept, linear extrapolation to water, MeOH/20 mM acetate buffer): 3.0227; -S Chol ([3]; slope of Soczewiński–Wachtmeister equation, MeOH/20 mM acetate buffer): 5.0400; log K AGP ([4]; binding equilibrium constant from calibration curve (Equation 9) of log k AGP): 0.7514; fraction unbound ([4]; human, pH 7.4, % plasma–protein binding converted from log K AGP (Equation 10), read-out: %PPB AGP (converted)): 0.142; log k AGP ([4]; retention on AGP column, 50 mM ammonium acetate pH 7.4 / propan-2-ol 85/15 (v/v)): 0.6494; log kw C-18 ([5]; intercept of Soczewiński–Wachtmeister equation (water as mobile phase)): 2.6769; -S C-18 ([5]; slope of Soczewiński–Wachtmeister equation): 4.6919
